Experimental data published in ChEMBL document CHEMBL1121822, “Sulfonate analogues of adenosine nucleotides as inhibitors of nucleotide-binding enzymes” (J Med Chem, 1981).

Biological target: Alcohol dehydrogenase (Equus caballus, UniProt P00327+P00328)
Test: Inhibition constant was evaluated against horse liver alcohol dehydrogenase

Row | Inhibition constant [mM] | SMILES
1 | 4.3 | Nc1ncnc2c1ncn2CCS(=O)(=O)O
2 | 0.44 | COP(=O)(O)OC[C@H]1OC(n2cnc3c(N)ncnc32)[C@H](O)[C@@H]1O (stereo partly specified)
3 | 0.038 | Nc1ncnc2c1ncn2[C@@H]1O[C@H](COP(=O)(O)O)[C@@H](O)[C@H]1O [ADENOSINE PHOSPHATE]
4 | 1.2 | Nc1ncnc2c1ncn2C1O[C@H](CO)[C@H](S(=O)(=O)O)[C@H]1O (stereo partly specified)
5 | 0.18 | Nc1ncnc2c1ncn2C1O[C@H](CS(=O)(=O)O)[C@@H](O)[C@H]1O (stereo partly specified)
6 | 4.9 | Nc1ncnc2c1ncn2CCCS(=O)(=O)O
